In patent US20100247448A1, “NOVEL LANTHANIDE LIGANDS AND COMPLEXES, AND USE THEREOF AS CONTRAST AGENTS” (COMMISSARIAT A L'ENERGIE ATOMIQUE, priority 2006, published 2010):
Values joined by “and” are separate entries in the source; they are usually repeats but may differ in a detail not shown here. Equal values may be shown once. Read-outs that look alike come from different tables or passages of the source.

Legend:
[1] = Absorption and luminescence (excitation, molar absorption, lifetime, quantal throughput); assay type: physicochemical; settings: for molar absorption coefficient: band at ˜36500 cm^−1; for ΦD2O (quantal throughput): in D2O; for ΦH2O (quantal throughput): in H2O; for τD2O (luminescence lifetime): in deuterized water; for τH2O (luminescence lifetime): in water; for emission quantal throughput F: relative to [Tb(dpa)3]^3−, buffer solution Tris 0.1M, 15% experimental error
From the text: The absorption spectra of bpatcn^3− and its complexes of Eu^III and Tb^III show an intense band at ˜36500 cm^−1 with a molar absorption coefficient of 9050 for Eu and of 9100 for Tb. These bands have been attributed to a combination of π-->π* and n-->π* centred transitions of the ligand.
FIGS. 3a and 3b show respectively the emission spectra of the solutions of the europium and terbium complexes at pH=7.4 (obtained after excitation at 273 nm) and the usual and typical transitions ^5D0-->^7FJ and ^5D4-->^7FJ (J=0-6) of the ions Eu^3+ and Tb^3+.
The emission quantal throughput of the complex of [Tb(bpatcn)(H2O)]
The long life time of the luminescence observed for the terbium complex in water (1.5 ms), excludes the presence of a de-energizing process including the energy return of the metal in its energized state towards the ligand.
Chem. Int. Ed. Engl., 1987, 26, 1266; G. Mathis, Clin. Chem., 1993, 39, 195

[2] = Stability constant of the Ca complex by direct titration of 1:1 metal:ligand; pCa; assay type: physicochemical; settings: for logβCaL (log KCaL): present work, 1:1 metal:H3bpatcn 5.10^−4 M, pH 2.5 to 8.5
From the text: (§1) The stability constants of the complexes of H3bpatcn of Gd^III and of […] have been calculated by direct titration of a mixture of 1:1 metal:H3bpatcn (5.10^−4 M) in a pH range between 2.5 and 8.5.
(§2) The titration data may be represented by the following equations:
Ca^2++bpatcn^3−⇄[Ca(bpatcn)]^− log KCaL=8.18(7)

[3] = literature; cited from earlier work
[4] = cited from earlier work; for Log βGdL (log KGdL): literature
[5] = cited from earlier work; for logβCaL: literature
[6] = Stability constant of the Gd complex by direct titration of 1:1 metal:ligand; pGd; assay type: physicochemical; settings: for Log βGdL (log KGdL): present work, 1:1 metal:H3bpatcn 5.10^−4 M, pH 2.5 to 8.5
From the text: as §1, §2
Gd^3++bpatcn^3−⇄[Gd(bpatcn)] log KGdL=15.8(2);

[7] = De-protonation constants (pKa) by potentiometric titration; assay type: physicochemical; settings: 0.1 M KCl, 298 K
From the text: Both following equivalents protonate the carboxylate moieties associated with the pyridines (pKa2=2.3(2), pKa3=3.71(3).
The protonation curve and the structural data match a simultaneous partial protonation of the three nitrogens of the macrocycle as observed for the ligand H3nota, followed by the protonation of the carboxylate moieties. The protonation of the third amine and of the nitrogens of the pyridines takes place at lower pH and the related pKa has not been determined.

[8] = gadolinium complexes; cited from earlier work
[9] = commercial contrast agent, comparison
[10] = pH 7.4, [M]total=1 μM, [bpatcn]total=10 μM

O=C([O-])CN1CCN(Cc2cccc(C(=O)[O-])n2)CCN(Cc2cccc(C(=O)[O-])n2)CC1.[Tb+3] [Tb (bpatcn)]
ε [1]: 9100 M⁻¹ cm⁻¹
λexc [1]: 273 nm
quantal throughput value Φ ([1]; as stated in text before the table): 48%
molar absorption coefficient [1]: 9100 M⁻¹ cm⁻¹
ΦD2O (quantal throughput) [1]: 0.48
ΦH2O (quantal throughput) [1]: 0.43
τD2O (luminescence lifetime) [1]: 2.46 (7) ms
τH2O (luminescence lifetime) [1]: 1.5 ms and 1.49 (2) ms
emission quantal throughput F [1]: 43%

O=C(O)CN1CCN(Cc2cccc(C(=O)[O-])n2)CCN(Cc2cccc(C(=O)[O-])n2)CC1.[Ca+2] [[Ca(bpatcn)]^−]
logβCaL (log KCaL) [2]: 8.18(7)

O=C(O)CN(CC(=O)O)CC(=O)O [H3nta, nitrilotriethanoic acid]
pKa (highest, first listed) [3]: 9.75
pKa (second listed) [3]: 2.64
pKa (third listed) [3]: 1.57
Log βGdL (log KGdL) [4]: 11.4

O=C([O-])CN1CCN(Cc2cccc(C(=O)[O-])n2)CCN(Cc2cccc(C(=O)[O-])n2)CC1.[Eu+3] [Eu (bpatcn)]
ε [1]: 9050 M⁻¹ cm⁻¹
λexc [1]: 273 nm
molar absorption coefficient [1]: 9050 M⁻¹ cm⁻¹
ΦD2O (quantal throughput) [1]: 0.12
ΦH2O (quantal throughput) [1]: 0.05
τD2O (luminescence lifetime) [1]: 1.67 (4) ms
τH2O (luminescence lifetime) [1]: 0.542 (4) ms
emission quantal throughput F [1]: 5%

O=C(O)CN1CCN(CC(=O)O)CCN(CC(=O)O)CC1 [H3nota, 1,4,7-triazacyclononane-N,N′,NN″-triacetic (H3nota) acid]
pKa (highest, first listed) [3]: 11.3(1)
pKa (second listed) [3]: 5.6
pKa (third listed) [3]: 2.88(2)
logβCaL [5]: 8.92
Log βGdL (log KGdL) [4]: 13.7

O=C(O)CN(CCN(CC(=O)O)CC(=O)O)CC(=O)O [H4edta]
pKa (fourth listed) [3]: 2.60
pKa (highest, first listed) [3]: 10.19
pKa (second listed) [3]: 6.13
pKa (third listed) [3]: 2.69
logβCaL [5]: 10.5
Log βGdL (log KGdL) [4]: 17.4

O=C([O-])CN1CCN(Cc2cccc(C(=O)[O-])n2)CCN(Cc2cccc(C(=O)[O-])n2)CC1.[Gd+3] [[Gd(bpatcn)]]
Log βGdL (log KGdL) [6]: 15.8(2)

CNC(=O)CN(CCN(CCN(CC(=O)[O-])CC(=O)NC)CC(=O)[O-])CC(=O)[O-].[Gd+3] [[Gd(dtpa-bma)(H2O)]^−]
pCa [5, 9]: 6.39
pGd [4, 9]: 15.8
Log βGdL (log KGdL) [4]: 1.85

O=C(O)CN1CCN(Cc2cccc(C(=O)O)n2)CCN(Cc2cccc(C(=O)O)n2)CC1 [H3bpatcn]
pKa4 ([7]; macrocycle nitrogen): 5.42(3)
pKa5 ([7]; macrocycle nitrogen): 10.5(2)
pKa2 ([7]; picolinate carboxylate): 2.3(2)
pKa3 ([7]; picolinate carboxylate): 3.7(3) and 3.71(3)
pKa1 ([7]; protonation of the carboxylate moiety): 2.2(2)
increase in stability of the gadolinium complex (relative to nota complex) ([6]; due to two pyridyl nitrogen donors): 2.1 log units
pGd (−log [M]free) [6, 10]: 13.6
Log βGdL (log KGdL) [6]: 15.8(2)
pCa (−log [M]free) [2, 10]: 6.30
logβCaL (log KCaL) [2]: 8.18(7)
ε [1]: 7850 M⁻¹ cm⁻¹
λexc [1]: 272 nm

O=C(O)CN1CCN(CC(=O)O)CCN(CC(=O)O)CCN(CC(=O)O)CC1 (Gd complex, metal not drawn) [dota, 1,4,7,10-tetraazacyclododecane-N,N′,N″,N′″-tetra-acetic (H4dota) acid]
zero-field spin electronic relaxation [8]: 650 ps

O=C([O-])c1cccc(CN2CCN(Cc3cccc(C(=O)[O-])n3)CCN(Cc3cccc(C(=O)[O-])n3)CC2)n1.[Gd+3] [[Gd(tpatcn)]]
zero-field spin electronic relaxation [8]: approx. 1500 ps

C1CNCCNCCN1 [1,4,7-triazacyclononane]
pKa (highest, first listed) [3]: 10.42
pKa (second listed) [3]: 6.82

O=C(O)CN(CCN(CC(=O)O)Cc1cccc(C(=O)O)n1)Cc1cccc(C(=O)O)n1 [H4bpdea, N,N′-bis[(6-carboxypyridin-2-yl)methyl]-ethylene diamine-N,N′-diacetic (H4bpeda) acid]
pKa (fourth listed) [3]: 2.9(1)
pKa (highest, first listed) [3]: 8.5(1)
pKa (second listed) [3]: 5.2(2)
pKa (third listed) [3]: 3.5(1)
logβCaL [5]: 9.4(1)
Log βGdL (log KGdL) [4]: 15.1(3)

O=C(O)c1cccc(CN(Cc2cccc(C(=O)O)n2)Cc2cccc(C(=O)O)n2)n1 [H3tpaa, α, α′, α″ nitrilotri(6-methyl-2-pyridinecarboxylic) acid]
pKa (highest, first listed) [3]: 4.11(6)
pKa (second listed) [3]: 3.3(1)
pKa (third listed) [3]: 2.5(2)
logβCaL [5]: 8.5(2)
Log βGdL (log KGdL) [4]: 10.2(2)

O=C(O)CN(CCN(CC(=O)O)Cc1ccccn1)Cc1ccccn1 [N,N′-bis(2-pyridinylmethyl)ethylenediamine-N,N′-diacetate]
contribution of the 2-pyridylmethyl to stability of the Gd^III complex ([4]; estimated): 2.6 log units
